This note sets out measurements from ChEMBL document CHEMBL1201862, “PubChem BioAssay data set” (2004).

Each structure is given as a SMILES string.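 Growth conditions: 96-well plates. Treatment: test compound, 48 hours, 5 concentrations. Analysis: linear interpolation between bracketing concentrations; unreached endpoints set to highest concentration. Here, GI50 denotes the concentration required for 50% inhibition of growth.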 Active and inactive are the calls of the source. No stated cut-off is given here; in the data, active = GI50 up to about 1.1 µM and inactive = higher. Bounds are passed on as bounds.

Some test systems named below: CCRF-CEM; A549; OVCAR-3; SK-MEL-5; OVCAR-4; HCT-15; M14; RPMI-8226; A498; SR; HCT-116; SF-268; MCF7; OVCAR-5; LOX IMVI; HT-29; BT-549; Hs-578T; SF-295; EKVX.
Test in all cases: DTP human tumour cell line panel, 48 h

With `COc1cc2cc(c1Cl)N(C)C(=O)C[C@H](OC(=O)[C@H](C)N(C)C(C)=O)[C@]1(C)O[C@H]1[C@H](C)[C@@H]1C[C@@](O)(NC(=O)O1)[C@H](OC)/C=C/C=C(/C)C2`, the 50% growth inhibitory concentration (GI50) is 0.0159 µM (active) with CCRF-CEM; 0.0255 µM (active) in the assay with A549; 0.0127 µM (active) with OVCAR-3; 0.0135 µM (active) in the assay on SK-MEL-5; 0.794 µM (active) with OVCAR-4; 0.0292 µM in the assay on HCT-15. Besides, the 50% growth inhibitory concentration (GI50) with M14 was 0.0509 µM (active); in the assay on RPMI-8226, 0.0133 µM (active); in the assay on A498 it was 0.0161 µM (active); in the assay on SR it was 0.0156 µM (active); in the assay with HCT-116, 0.0143 µM (active); in the assay with SF-268 it was 0.0176 µM (active). Besides, the 50% growth inhibitory concentration (GI50) with MCF7 was 0.018 µM (active); in the assay on OVCAR-5 it was 6.98 µM (inactive); in the assay on LOX IMVI it was 0.0153 µM (active); with HT-29 it was 0.0164 µM (active); with BT-549, 0.334 µM (active); in the assay on Hs-578T it was 0.0219 µM (active). Further, the GI50 was 0.0174 µM (active) with SF-295 and 0.355 µM (active) with EKVX.
Take `CN(C)c1ccc(C(=N/N=C2\C(=O)Nc3ccccc32)c2ccc(N(C)C)cc2)cc1`: the GI50 is 0.935 µM (active) with CCRF-CEM; 0.625 µM (active) in the assay with A549; 0.513 µM (active) in the assay with OVCAR-3; 0.417 µM (active) with SK-MEL-5; 1.94 µM (inactive) in the assay with OVCAR-4; 0.188 µM in the assay on HCT-15. Moreover, the concentration for 50% growth inhibition (GI50) with M14 is 0.348 µM (active); in the assay with RPMI-8226, 0.22 µM (active); in the assay with A498, 1.96 µM (inactive); in the assay on SR it was 0.0262 µM (active); in the assay with HCT-116, 0.33 µM (active); in the assay on SF-268, 0.942 µM (active). Moreover, the concentration for 50% growth inhibition (GI50) was 0.266 µM (active) in the assay on MCF7; 3.72 µM (inactive) with OVCAR-5; 0.748 µM (active) in the assay on LOX IMVI; 0.348 µM (active) with HT-29; 0.938 µM (active) in the assay with BT-549; 0.836 µM (active) in the assay with Hs-578T. The GI50 in the assay with SF-295 was 0.308 µM (active); with EKVX it was 5.15 µM (inactive).
On to `Brc1ccc(-c2ccc(-c3ccc(Br)s3)s2)s1`, for which the GI50 is > 100 µM (inactive) with CCRF-CEM; > 100 µM (inactive) in the assay on A549; > 100 µM (inactive) in the assay with OVCAR-3; > 100 µM (inactive) in the assay with SK-MEL-5; > 100 µM (inactive) in the assay on OVCAR-4; > 100 µM in the assay with HCT-15. Also, the GI50 with M14, in the assay on RPMI-8226, with A498, in the assay with SR, in the assay on HCT-116 and in the assay on SF-268 was > 100 µM (inactive) in each case. In addition, the GI50 in the assay on MCF7, with OVCAR-5, in the assay with LOX IMVI, with HT-29, in the assay with BT-549 and in the assay on Hs-578T was > 100 µM (inactive) each time. The GI50 in the assay with SF-295 and in the assay on EKVX was > 100 µM (inactive) each time.
Consider `C=CCN1C(=O)/C(=C/c2ccc(C)cc2)NC1=S`, for which the GI50 was 33 µM (inactive) in the assay with CCRF-CEM; 76.4 µM (inactive) with A549; > 100 µM (inactive) in the assay on OVCAR-3; 39.6 µM (inactive) in the assay with SK-MEL-5; 57 µM (inactive) with OVCAR-4; > 100 µM in the assay on HCT-15. The GI50 is 87.7 µM (inactive) with M14; 39.4 µM (inactive) in the assay with RPMI-8226; 47 µM (inactive) with A498; 85.9 µM (inactive) with SR; > 100 µM (inactive) in the assay on HCT-116; > 100 µM (inactive) in the assay with SF-268. Further, the GI50 was 70.6 µM (inactive) in the assay on MCF7; > 100 µM (inactive) with OVCAR-5; 63.2 µM (inactive) with LOX IMVI; 96.6 µM (inactive) in the assay on HT-29; > 100 µM (inactive) in the assay with BT-549; > 100 µM (inactive) in the assay on Hs-578T. Further, the GI50 was 75 µM (inactive) with SF-295 and 37.8 µM (inactive) with EKVX.
Turning to `CC(C)(C)C#CI1OC(=O)c2ccccc21`, the GI50 in the assay on CCRF-CEM was 1.37 µM (inactive); in the assay on A549 it was 8.49 µM (inactive); in the assay with OVCAR-3, 2.99 µM (inactive); with SK-MEL-5 it was 6.08 µM (inactive); with OVCAR-4, 2.72 µM (inactive); in the assay with HCT-15, 3.38 µM. Moreover, the GI50 in the assay with M14 is 3.31 µM (inactive); in the assay on RPMI-8226 it was 1.81 µM (inactive); with A498 it was 6.07 µM (inactive); in the assay with SR, 0.74 µM (active); with HCT-116, 2.48 µM (inactive); with SF-268, 4.34 µM (inactive). For the same molecule, the GI50 is 4.03 µM (inactive) with MCF7; 7.67 µM (inactive) with OVCAR-5; 1.09 µM (active) with LOX IMVI; 4.16 µM (inactive) in the assay on HT-29; 3.16 µM (inactive) in the assay with BT-549; 8.75 µM (inactive) with Hs-578T. Moreover, the GI50 is 14.3 µM (inactive) in the assay on SF-295 and 4.89 µM (inactive) in the assay with EKVX.
As to `COc1ccccc1NC(=S)N/N=C/c1ccccn1`, the 50% growth inhibitory concentration (GI50) in the assay on CCRF-CEM is 0.276 µM (active); in the assay with A549, 0.564 µM (active); with OVCAR-3, < 0.015 µM (active); in the assay with SK-MEL-5, 0.252 µM (active); in the assay with OVCAR-4, 0.619 µM (active); in the assay on HCT-15, 0.227 µM. Moreover, the GI50 in the assay with M14 is 0.0692 µM (active); in the assay on RPMI-8226, 0.0658 µM (active); in the assay on A498, 0.255 µM (active); with SR, 0.71 µM (active); in the assay on HCT-116 it was < 0.0204 µM (active); in the assay with SF-268 it was 0.191 µM (active). Also, the 50% growth inhibitory concentration (GI50) in the assay on MCF7 was 0.0504 µM (active); in the assay on OVCAR-5, 0.288 µM (active); in the assay on LOX IMVI it was 0.0927 µM (active); in the assay on HT-29 it was < 0.01 µM (active); in the assay on BT-549, 1.77 µM (inactive); with Hs-578T, 14.3 µM (inactive). Moreover, the figures for the GI50 in the assay with SF-295 and in the assay on EKVX were 0.621 µM (active) and 0.293 µM (active), respectively.
On to `NC(C(=O)O)C(O)c1c[nH]cn1` (configuration not stated), for which the GI50 was > 100 µM (inactive) in the assay on CCRF-CEM; > 100 µM (inactive) with A549; > 100 µM (inactive) in the assay on OVCAR-3; > 100 µM (inactive) in the assay on SK-MEL-5; > 100 µM (inactive) with OVCAR-4; > 100 µM with HCT-15. Further, the GI50 in the assay on M14, in the assay on RPMI-8226, with A498, in the assay with SR, in the assay on HCT-116 and with SF-268 was > 100 µM (inactive) each time. Moreover, the GI50 with MCF7, in the assay on OVCAR-5, in the assay with LOX IMVI, in the assay on HT-29, in the assay with BT-549 and in the assay with Hs-578T was > 100 µM (inactive) in each case. For the same molecule, the GI50 in the assay on SF-295 and in the assay with EKVX was > 100 µM (inactive) each time.
Regarding `Nc1nc(Cl)cc(NCC2(CO)COC2)n1`, the GI50 was > 100 µM (inactive) in the assay on CCRF-CEM; > 100 µM (inactive) in the assay with A549; > 100 µM (inactive) with OVCAR-3; > 100 µM (inactive) in the assay on SK-MEL-5; > 100 µM (inactive) in the assay on OVCAR-4; > 100 µM with HCT-15. Moreover, the GI50 in the assay on RPMI-8226, with A498, in the assay with SR, with HCT-116, in the assay on SF-268 and in the assay on MCF7 was > 100 µM (inactive) each time. In addition, the GI50 in the assay with OVCAR-5, in the assay with LOX IMVI, in the assay with HT-29, with BT-549, in the assay on Hs-578T and in the assay on SF-295 was > 100 µM (inactive) throughout. Also, the GI50 in the assay with EKVX was > 100 µM (inactive).
On to `Cc1n[nH]c(=O)n1/N=C\c1ccccc1`, for which the GI50 with CCRF-CEM was > 100 µM (inactive); in the assay on A549, > 100 µM (inactive); in the assay with OVCAR-3, > 100 µM (inactive); in the assay with SK-MEL-5 it was > 100 µM (inactive); with OVCAR-4, > 100 µM (inactive); in the assay with HCT-15, > 100 µM. Besides, the GI50 in the assay on RPMI-8226 was > 100 µM (inactive); with A498, > 100 µM (inactive); in the assay with SR, > 100 µM (inactive); in the assay with HCT-116, > 100 µM (inactive); with SF-268 it was 0.0855 µM (active); in the assay with MCF7, > 100 µM (inactive). For the same molecule, the GI50 in the assay on OVCAR-5 was > 100 µM (inactive); with LOX IMVI, > 100 µM (inactive); in the assay on HT-29, > 100 µM (inactive); in the assay with BT-549, > 100 µM (inactive); with Hs-578T, > 100 µM (inactive); with SF-295 it was 59.2 µM (inactive). In addition, the GI50 with EKVX was > 100 µM (inactive).
Regarding `CN(C)CCN(C)c1ccc2c(=O)n(CCN(C)C)c(=O)n3c4ccccc4c(=O)c1c23`, the GI50 with CCRF-CEM is < 0.0258 µM (active); in the assay on A549 it was 0.0353 µM (active); in the assay with OVCAR-3 it was 1.89 µM (inactive); with SK-MEL-5 it was 0.48 µM (active); in the assay with OVCAR-4 it was 0.364 µM (active); with HCT-15, 0.179 µM. Also, the GI50 with M14 is 0.986 µM (active); with RPMI-8226, 0.179 µM (active); in the assay on A498 it was 0.471 µM (active); in the assay on SR, < 0.01 µM (active); in the assay with HCT-116, 0.194 µM (active); in the assay on MCF7, 0.345 µM (active). Besides, the GI50 is 1.87 µM (inactive) in the assay with OVCAR-5; 0.35 µM (active) in the assay on LOX IMVI; 0.397 µM (active) in the assay on HT-29; 3.3 µM (inactive) in the assay with BT-549; 2.12 µM (inactive) with Hs-578T; 0.34 µM (active) in the assay with SF-295. The GI50 in the assay with EKVX was 1.66 µM (inactive).
